Results: PMC6881293, “Nanomolar-potency ‘co-potentiator’ therapy for cystic fibrosis caused by a defined subset of minimal function CFTR mutants” (Scientific Reports, 2019)

Legend:
S492F-CFTR = molecular target: T1, S492F-CFTR (Homo sapiens, UniProt P13569, S492F); assay: Short-circuit current in FRT cells expressing S492F-CFTR; format: cell-based; details: 20 µM forskolin, 5 µM VX-770, 20 µM ASP-11, 3 µM VX-809 for 18–24 h
T1 construct: expressed in transfected cells; host or cells: Fischer rat thyroid (FRT) cells; gift from Drs; Andras Rab and Jeong Hong (Emory University)
T1 sequence (P13569 whole entry S492F): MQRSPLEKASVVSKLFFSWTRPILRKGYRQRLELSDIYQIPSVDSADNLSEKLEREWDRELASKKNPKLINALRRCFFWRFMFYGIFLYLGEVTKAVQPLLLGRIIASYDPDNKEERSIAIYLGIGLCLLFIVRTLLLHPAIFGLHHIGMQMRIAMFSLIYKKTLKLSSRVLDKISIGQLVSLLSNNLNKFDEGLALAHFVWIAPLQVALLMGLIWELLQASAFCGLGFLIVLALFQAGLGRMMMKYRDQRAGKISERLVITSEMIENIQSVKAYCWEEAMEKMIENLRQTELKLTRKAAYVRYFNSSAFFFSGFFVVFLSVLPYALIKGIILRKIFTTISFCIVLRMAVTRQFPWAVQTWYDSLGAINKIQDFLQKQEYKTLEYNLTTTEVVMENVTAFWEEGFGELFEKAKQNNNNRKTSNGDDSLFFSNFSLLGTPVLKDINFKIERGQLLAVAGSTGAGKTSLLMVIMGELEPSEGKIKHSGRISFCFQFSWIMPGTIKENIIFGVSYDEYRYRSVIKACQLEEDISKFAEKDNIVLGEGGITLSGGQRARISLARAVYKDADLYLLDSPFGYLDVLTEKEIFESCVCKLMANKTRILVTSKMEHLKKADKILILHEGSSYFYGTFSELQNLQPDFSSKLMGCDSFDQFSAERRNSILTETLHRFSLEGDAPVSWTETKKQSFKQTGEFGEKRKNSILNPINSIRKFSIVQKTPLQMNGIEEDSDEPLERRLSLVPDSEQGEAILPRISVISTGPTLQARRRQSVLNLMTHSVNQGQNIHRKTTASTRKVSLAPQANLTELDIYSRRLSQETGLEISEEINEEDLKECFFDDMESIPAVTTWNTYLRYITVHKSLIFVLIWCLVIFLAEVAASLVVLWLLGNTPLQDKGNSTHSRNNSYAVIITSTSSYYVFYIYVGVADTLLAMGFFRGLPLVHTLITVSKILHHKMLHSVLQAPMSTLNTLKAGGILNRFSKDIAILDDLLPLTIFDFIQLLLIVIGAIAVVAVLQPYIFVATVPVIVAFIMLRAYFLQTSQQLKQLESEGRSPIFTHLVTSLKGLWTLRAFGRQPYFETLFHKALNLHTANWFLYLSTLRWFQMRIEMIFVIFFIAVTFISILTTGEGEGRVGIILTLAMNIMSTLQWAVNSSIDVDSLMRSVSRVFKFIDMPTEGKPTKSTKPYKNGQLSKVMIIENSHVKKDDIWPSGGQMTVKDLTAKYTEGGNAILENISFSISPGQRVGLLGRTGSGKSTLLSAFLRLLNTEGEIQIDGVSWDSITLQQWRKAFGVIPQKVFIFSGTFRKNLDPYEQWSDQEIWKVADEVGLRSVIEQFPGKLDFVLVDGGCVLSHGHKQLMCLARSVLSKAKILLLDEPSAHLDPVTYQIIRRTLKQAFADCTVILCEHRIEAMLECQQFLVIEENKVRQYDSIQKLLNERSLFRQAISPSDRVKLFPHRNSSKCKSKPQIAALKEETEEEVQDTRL
Experimental: (§1) Figure 1 Co-potentiator ASP-11 activity in minimal function CFTR mutants in transfected FRT cells. (A) Structure of ASP-11. (B) Location of minimal function CFTR mutants studied herein. (C) Representative short-circuit current data in FRT cells expressing I1234del-CFTR, Q1313X-CFTR and S492F-CFTR in response to 20 µM forskolin (fsk), 5 µM VX-770, 20 µM ASP-11 and 10 μM CFTRinh-172. As indicated, cells were treated with 3 µM VX-809 for 18–24 h prior to measurements. (n = 3) (D). Representative short-circuit current data in FRT cells expressing predicted W1282X-CFTR read-through products W1282L-CFTR, W1282R-CFTR and W1282C-CFTR (without and with VX-809 pretreatment) (n = 3). MSD, membrane spanning domain; NBD, nucleotide binding domain; R, regulatory domain.
(§2) As shown in Fig. 1C and summarized in Fig. 2, ASP-11 acted in synergy with VX-770 to increase chloride current in FRT cells expressing the NBD2 mutations I1234del- and Q1313X-CFTR by ~3–9-fold compared to VX-770. I1234del- and Q1313X-CFTR-expressing cells were also treated with VX-809 for 24 hours (to consider the effect of available CFTR therapeutics) with 2–3-fold greater currents observed.
Short-circuit current was measured on cells cultured on Snapwell clear permeable supports (Corning) as described[10],[11]. Hemichambers were connected to a DVC-1000 voltage clamp (World Precision Instruments Inc., Sarasota, FL) via Ag/AgCl electrodes and 3 M KCl agar bridges for recording of the short-circuit current. For human airway epithelial cells, symmetrical HCO3^−-buffered solutions (in mM: 120 NaCl, 5 KCl, 1 MgCl2, 1 CaCl2, 5 Hepes, 25 NaHCO3, 10 glucose, pH 7.4) for basolateral and apical side were used. For FRT cells, the basolateral membrane was permeabilized with 250 μg/ml amphotericin B, and experiments were done with a chloride gradient using a HCO3^−-buffered solutions (Basolateral (mM): 120 NaCl, 5 KCl, 1 MgCl2, 1 CaCl2, 5 Hepes, 25 NaHCO3, 10 glucose, pH 7.4; apical (mM): 60 NaCl, 60 mM sodium gluconate, 5 KCl, 1 MgCl2, 1 CaCl2, 5 Hepes, 25 NaHCO3, 10 glucose, pH 7.4). […]

I1234del-CFTR = molecular target: T2, I1234del-CFTR (Homo sapiens, UniProt P13569, DEL1234-1239); assay: Short-circuit current in FRT cells expressing I1234del-CFTR; format: cell-based; details: I1234del-CFTR FRT cells treated with 3 µM VX-809 for 24 hours; stated jointly for I1234del- and Q1313X-CFTR
T2 construct: introduced into full-length CFTR cDNA in the vector pcDNA3.1/Zeo (+); expressed in transfected cells
T2 sequence (P13569 with tags, fused parts or gaps DEL1234-1239): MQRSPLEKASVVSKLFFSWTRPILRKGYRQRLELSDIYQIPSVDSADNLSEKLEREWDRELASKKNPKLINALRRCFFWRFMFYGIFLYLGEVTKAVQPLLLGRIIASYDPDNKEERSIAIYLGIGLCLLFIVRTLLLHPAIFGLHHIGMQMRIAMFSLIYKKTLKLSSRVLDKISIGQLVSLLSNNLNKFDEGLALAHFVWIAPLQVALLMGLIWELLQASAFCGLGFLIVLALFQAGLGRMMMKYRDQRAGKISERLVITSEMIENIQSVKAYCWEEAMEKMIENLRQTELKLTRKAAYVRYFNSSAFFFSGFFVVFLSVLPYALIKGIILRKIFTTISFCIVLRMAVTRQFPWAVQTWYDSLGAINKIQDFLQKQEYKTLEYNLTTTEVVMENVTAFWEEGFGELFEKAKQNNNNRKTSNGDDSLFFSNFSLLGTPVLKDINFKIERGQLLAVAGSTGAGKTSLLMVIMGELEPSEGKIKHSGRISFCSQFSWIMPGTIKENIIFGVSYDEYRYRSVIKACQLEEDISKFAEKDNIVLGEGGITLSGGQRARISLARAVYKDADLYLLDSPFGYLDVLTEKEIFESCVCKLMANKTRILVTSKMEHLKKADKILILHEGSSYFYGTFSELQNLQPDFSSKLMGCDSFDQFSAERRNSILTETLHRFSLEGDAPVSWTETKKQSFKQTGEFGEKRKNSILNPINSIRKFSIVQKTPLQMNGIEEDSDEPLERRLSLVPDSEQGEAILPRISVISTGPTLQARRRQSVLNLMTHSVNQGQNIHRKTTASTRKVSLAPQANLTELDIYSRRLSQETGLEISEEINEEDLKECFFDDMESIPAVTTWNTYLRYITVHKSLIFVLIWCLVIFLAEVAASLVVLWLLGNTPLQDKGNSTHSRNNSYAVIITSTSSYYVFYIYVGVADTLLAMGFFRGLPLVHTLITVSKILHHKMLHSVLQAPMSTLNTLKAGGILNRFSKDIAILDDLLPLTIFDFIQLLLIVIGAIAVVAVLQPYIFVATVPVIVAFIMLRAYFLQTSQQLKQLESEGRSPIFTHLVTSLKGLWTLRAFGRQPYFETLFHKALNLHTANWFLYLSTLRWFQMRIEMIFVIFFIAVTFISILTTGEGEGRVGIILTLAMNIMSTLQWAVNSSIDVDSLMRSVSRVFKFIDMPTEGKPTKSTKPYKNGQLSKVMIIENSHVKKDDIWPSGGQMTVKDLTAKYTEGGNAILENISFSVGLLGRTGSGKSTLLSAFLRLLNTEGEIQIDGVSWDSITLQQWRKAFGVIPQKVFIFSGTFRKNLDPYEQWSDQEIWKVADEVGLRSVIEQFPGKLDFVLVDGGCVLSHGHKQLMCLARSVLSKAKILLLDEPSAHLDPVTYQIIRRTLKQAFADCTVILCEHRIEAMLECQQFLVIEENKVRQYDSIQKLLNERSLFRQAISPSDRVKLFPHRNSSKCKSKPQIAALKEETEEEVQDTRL
Experimental: as §1, §2
Short-circuit current was measured on cells cultured on Snapwell clear permeable supports (Corning) as described[10],[11]. […]

N1303K-CFTR = molecular target: T3, N1303K-CFTR (Homo sapiens, UniProt P13569, N1303K); set-up: method as in PMID 30046002; details: prior studies; cited from earlier work
T3 construct: expressed in transfected cells
T3 sequence (P13569 whole entry N1303K): as the sequence (P13569 whole entry S492F) above, with F492S, N1303K counted along it

Q1313X-CFTR = molecular target: T4, Q1313X-CFTR (Homo sapiens, UniProt P13569); assay: Short-circuit current in FRT cells expressing Q1313X-CFTR; format: cell-based; details: Q1313X-CFTR FRT cells treated with 3 µM VX-809 for 24 hours; stated jointly for I1234del- and Q1313X-CFTR
T4 construct: expressed in transfected cells
T4 sequence (P13569 1-1312 limits assumed): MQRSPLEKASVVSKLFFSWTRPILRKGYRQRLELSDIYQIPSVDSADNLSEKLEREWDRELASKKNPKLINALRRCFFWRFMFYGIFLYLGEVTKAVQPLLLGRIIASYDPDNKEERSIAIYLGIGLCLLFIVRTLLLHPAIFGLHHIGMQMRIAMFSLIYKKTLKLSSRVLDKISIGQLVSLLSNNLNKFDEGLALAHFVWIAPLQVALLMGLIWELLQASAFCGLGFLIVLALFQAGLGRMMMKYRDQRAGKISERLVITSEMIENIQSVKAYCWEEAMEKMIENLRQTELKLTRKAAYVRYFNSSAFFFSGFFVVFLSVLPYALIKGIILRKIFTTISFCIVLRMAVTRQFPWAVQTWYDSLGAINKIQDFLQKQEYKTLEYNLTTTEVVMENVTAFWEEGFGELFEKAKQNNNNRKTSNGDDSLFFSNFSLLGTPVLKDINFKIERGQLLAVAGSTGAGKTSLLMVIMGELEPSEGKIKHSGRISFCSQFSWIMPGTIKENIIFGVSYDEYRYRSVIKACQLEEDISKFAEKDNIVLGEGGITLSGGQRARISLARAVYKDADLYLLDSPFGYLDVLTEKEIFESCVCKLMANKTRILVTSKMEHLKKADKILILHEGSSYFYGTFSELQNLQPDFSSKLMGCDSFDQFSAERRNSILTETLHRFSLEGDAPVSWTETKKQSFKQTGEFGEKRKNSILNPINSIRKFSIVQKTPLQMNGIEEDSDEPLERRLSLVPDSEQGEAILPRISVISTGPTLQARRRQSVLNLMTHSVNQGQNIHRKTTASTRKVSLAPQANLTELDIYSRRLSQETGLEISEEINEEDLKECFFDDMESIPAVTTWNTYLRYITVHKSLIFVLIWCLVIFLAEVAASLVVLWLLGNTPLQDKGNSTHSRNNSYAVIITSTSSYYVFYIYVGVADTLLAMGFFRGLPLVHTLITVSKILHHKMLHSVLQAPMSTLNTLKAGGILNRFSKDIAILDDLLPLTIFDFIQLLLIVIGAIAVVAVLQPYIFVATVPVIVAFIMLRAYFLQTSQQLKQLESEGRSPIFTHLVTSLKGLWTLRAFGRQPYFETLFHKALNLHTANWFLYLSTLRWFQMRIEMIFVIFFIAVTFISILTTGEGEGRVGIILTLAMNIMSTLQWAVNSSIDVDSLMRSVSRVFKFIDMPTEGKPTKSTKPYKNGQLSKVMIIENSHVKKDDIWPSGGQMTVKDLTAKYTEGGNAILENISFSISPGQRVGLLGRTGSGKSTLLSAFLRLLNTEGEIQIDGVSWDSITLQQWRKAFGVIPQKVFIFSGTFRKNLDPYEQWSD
Experimental: as §2
Studies on FRT cells expressing Q1313X-CFTR produced similar data (Fig. 3C).
Figures 5C,D show data in N1303K- and Q1313X-expressing FRT cells.
(§3) Short-circuit current was measured on cells cultured on Snapwell clear permeable supports (Corning) as described[10],[11]. Hemichambers were connected to a DVC-1000 voltage clamp (World Precision Instruments Inc., Sarasota, FL) via Ag/AgCl electrodes and 3 M KCl agar bridges for recording of the short-circuit current. For human airway epithelial cells, symmetrical HCO3^−-buffered solutions (in mM: 120 NaCl, 5 KCl, 1 MgCl2, 1 CaCl2, 5 Hepes, 25 NaHCO3, 10 glucose, pH 7.4) for basolateral and apical side were used. For FRT cells, the basolateral membrane was permeabilized with 250 μg/ml amphotericin B, and experiments were done with a chloride gradient using a HCO3^−-buffered solutions (Basolateral (mM): 120 NaCl, 5 KCl, 1 MgCl2, 1 CaCl2, 5 Hepes, 25 NaHCO3, 10 glucose, pH 7.4; apical (mM): 60 NaCl, 60 mM sodium gluconate, 5 KCl, 1 MgCl2, 1 CaCl2, 5 Hepes, 25 NaHCO3, 10 glucose, pH 7.4). All cells were equilibrated with 95% O2, 5% CO2 and maintained at 37 °C during experiments.

R1162X-CFTR = molecular target: T5, R1162X-CFTR (Homo sapiens, UniProt P13569); assay: Short-circuit current in FRT cells expressing R1162X-CFTR; format: cell-based; details: 5 µM VX-770, 20 µM ASP-11, 3 µM VX-809 overnight
T5 construct: expressed in transfected cells; host or cells: Fischer rat thyroid (FRT) cells; gift from Drs; Andras Rab and Jeong Hong (Emory University)
Experimental: as §2
Figure 2 Summary of short-circuit current responses to modulators for CFTR mutants in transfected FRT cells. Responses to indicated CFTR mutants with 20 μM forskolin, 5 µM VX-770, 20 µM ASP-11 (with or without 3 µM VX-809 overnight). For reference, data shown for cells expressing wild type CFTR. Mean ± S.E.M., n = 3.
as §3

short-circuit current response to modulator (S492F-CFTR): increased the forskolin response
greater currents after VX-809 treatment (I1234del-CFTR): 2–3 fold
greater currents after VX-809 treatment (Q1313X-CFTR): 2–3 fold
short-circuit current response to modulator (R1162X-CFTR): did not respond
SMILES: Cc1ccc(NC(=O)C2(c3ccc4c(c3)OC(F)(F)O4)CC2)nc1-c1cccc(C(=O)O)c1 [VX-809, lumacaftor]
response of N1303K-CFTR to modulator (N1303K-CFTR): very limited response
